# Experimental data published in EP4094762A1, “TREATMENT OF NEUROLOGICAL INDICATIONS” (UCL Business Ltd, priority 2021, dated 2022).
# Tested on: not listed separately
# Assay: CNS penetration: intravenous cassette pharmacokinetic study, brain and plasma by LC-MS/MS
# Conditions: mouse, intravenous
# Method: To assess penetration of compounds into the mouse central nervous system, intravenous pharmacokinetic studies were undertaken in C57B16/J mice. […] Compounds were then combined into a single dosing solution and administered together via the intravenous route into 24 mice. Total compound dose administered to each mouse was 2mg/kg. Mice were culled at various times post dosing and brain and plasma collected for bioanalysis. In particular, mice were culled and plasma collected for bioanalysis at 8 time points out to 24 hours post dosing. Brains were also collected for bioanalysis at various time points to assess CNS penetration. 2 hour and 4 hour brain collection was carried out in all studies. Additional time points were collected in selected studies.
# For bioanalysis, compounds were prepared in DMSO and aliquoted together to ensure a final concentration of 1mg/mL per compound in DMSO. Analytical standards were prepared from the initial 1mg/mL stock solution of compound, with a 12-point standard curve range from 0.5ng/mL to 2000ng/mL, with independent quality control tests from 1ng/mL to 1000ng/mL run to validate the standards. All standards and QC samples were matrix matched to eliminate possible suppression. Plasma samples were prepared with a 1:10 dilution in plasma. […] Dose solutions were diluted in a control matrix to a relative concentration that fell on the standard curve. Cold acetonitrile containing internal standard was added to all samples, standards, dose samples and QC samples; samples were then centrifuged for 30 minutes at 4000rpm. After centrifugation, supernatant was transferred to a new 96-well plate, diluted with an equal volume of water and mixed thoroughly before LC-MS analysis.
# Supernatents were analysed by LC-MS/MS. From the analysis data a response ratio was obtained using the formula Response Ratio = Test Peak Area/Internal Standard Peak Area. From the standard curve, the test peak area was converted to concentration of test compound.
# To establish CNS penetration, the ratio of the concentration of each compound in the plasma samples to the brain samples was assessed.
row,SMILES,CNS penetration (in words)
1,"CC1(C)CN(c2ccccc2NC(=O)Nc2ccc(OC(F)(F)F)cc2)c2c(O)ccc(-c3ccc(Cl)cc3)c21 [RS1, 1-(2-(4-(4-chlorophenyl)-7-hydroxy-3,3-dimethylindolin-1-yl)phenyl)-3-(4-(trifluoromethoxy)phenyl)urea, reference compound]",no apparent CNS penetration
2,"Cc1ccc(NC(=O)Nc2ccc(OC(F)(F)F)cc2)c(Oc2ccccc2C(C)(C)C)n1 [RS2, 1-(2-(2-(tert-butyl)phenoxy)-6-methylpyridin-3-yl)-3-(4-(trifluoromethoxy)phenyl)urea, reference compound]",no apparent CNS penetration

# Target: T1, P2Y1 receptor (Homo sapiens, UniProt P47900)
# T1 construct: expressed in transfected cells
# T1 sequence (P47900 whole entry): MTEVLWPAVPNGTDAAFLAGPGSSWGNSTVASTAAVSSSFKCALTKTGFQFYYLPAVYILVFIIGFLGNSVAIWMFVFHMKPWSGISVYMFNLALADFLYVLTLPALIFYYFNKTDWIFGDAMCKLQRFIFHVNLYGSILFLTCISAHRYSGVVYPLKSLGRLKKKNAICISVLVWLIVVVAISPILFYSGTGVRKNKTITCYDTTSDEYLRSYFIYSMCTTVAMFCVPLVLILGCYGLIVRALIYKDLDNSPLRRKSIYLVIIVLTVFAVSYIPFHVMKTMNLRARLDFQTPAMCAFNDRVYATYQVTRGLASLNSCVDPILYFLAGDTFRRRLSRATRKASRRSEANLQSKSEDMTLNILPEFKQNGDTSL
# Assay: Cell based HTRF assay measuring IP1 accumulation; antagonism of the P2Y1 agonist MRS2365
# Conditions: rounded to nearest whole number; read-out: IC50 IP1
# Method: IC50 values were determined using a cell based assay in stably transfected cells overexpressing the P2Y1 receptor. The assay system is a high throughput […] assay measuring accumulation of the intracellular messenger inositol monophosphate (IP1), generated intracellularly following activation of P2Y1.
# P2Y1 overexpressing cells were maintained in T175 flasks. The day before the assay, these cells were split and 20µl cell suspension transferred to each well of white 384-well assay plates at a cell density of 0.5x10^6 cells/mL. Plates were pulse centrifuged, then incubated overnight at 37°C / 5% CO2 prior to assay.
# On day of assay, medium was removed from cells and replaced with stimulation buffer. […] Positive control antagonist curves with standard compounds were included on each plate. Plates were incubated with antagonists for 1 hour prior to addition of 5nM of the agonist MRS2365, dispensed using a Bravo liquid handler. Following agonist addition, plates were incubated for 60 minutes prior to assay. Both incubations were carried out at 37°C / 5% CO2.
# For the assay, IP1 accumulation was quantified using the IPOne kit according to manufacturer's instructions. In short, a standard curve was prepared for IP1 quantification, and cells lysed using kit lysis buffer. Assay reagents were added to the lysates, and incubated for 1 hour at room temperature without spinning or shaking. Plates were analysed on a BMG Pherastar plate reader, and IP1 signal generated in cells interpolated from the standard curve.
row,IC50,SMILES
1,0.057 µM,CC(C)(C)c1ccccc1Sc1ncccc1NC(=O)Nc1ccc(OC(F)(F)F)cc1 [S3]
2,0.076 µM,CC(C)(C)c1ccccc1Oc1ncccc1NC(=O)Nc1ccc2c(c1)OC(F)(F)O2 [S6]
3,0.099 µM,Cc1c(Oc2ncccc2NC(=O)Nc2ccc(OC(F)(F)F)cc2)cccc1-c1ccccc1 [S7]
4,0.124 µM,O=C(Nc1ccc(OC(F)(F)F)cc1)Nc1cccnc1Oc1ccccc1S(F)(F)(F)(F)F [S10]
5,0.151 µM,Cc1c(Oc2ncccc2NC(=O)Nc2ccc(OC(F)(F)F)cc2)cccc1N(C)C [S12]
6,0.151 µM,Cc1cnc(Oc2ccccc2C(C)(C)C)c(NC(=O)Nc2ccc(OC(F)(F)F)cc2)c1 [S13]
7,0.173 µM,O=C(Nc1ccc(OC(F)(F)F)cc1F)Nc1cccnc1Oc1ccccc1S(F)(F)(F)(F)F [S14]
8,0.179 µM,CC(C)c1ccc(C(F)F)cc1Oc1ncccc1NC(=O)Nc1ccc(OC(F)(F)F)cc1 [S15]
9,0.202 µM,Cc1c(Oc2ncccc2NC(=O)Nc2ccc(OC(F)(F)F)cc2)cccc1-c1ccc(C#N)cc1 [S16]
10,0.209 µM,CC(C)(C)c1ccccc1Oc1ncccc1NC(=O)Nc1nc2ccc(Cl)nc2s1 [S17]
11,0.236 µM,CC(C)(C)c1ccccc1Oc1ncncc1NC(=O)Nc1ccc(OC(F)(F)F)cc1 [S18]
12,0.264 µM,CC(C)(C)c1ccccc1Oc1ncc(C#N)cc1NC(=O)Nc1ccc(OC(F)(F)F)cc1 [S19]
13,0.276 µM,CC(C)(C)c1cccc(Oc2ncccc2NC(=O)Nc2ccc(OC(F)(F)F)cc2)c1 [S20]
14,0.301 µM,CC(C)(C)c1ccccc1Oc1ncccc1NC(=O)NCc1ccc(OC(F)(F)F)cc1 [S21]
15,0.302 µM,Cc1ccnc(Oc2ccccc2C(C)(C)C)c1NC(=O)Nc1ccc(OC(F)(F)F)cc1 [S22]
16,0.332 µM,Cc1c(Oc2ncccc2NC(=O)Nc2ccc(OC(F)(F)F)cc2)cccc1N1CCOCC1 [S23]
17,0.398 µM,Cc1cccc(Oc2ncccc2NC(=O)Nc2ccc(OC(F)(F)F)cc2)c1Br [S24]
18,0.493 µM,CC(C)(C)c1ccccc1Oc1ncc(-c2ccc3c(c2)OCCN3)cc1NC(=O)Nc1ccc(OC(F)(F)F)cc1 [S26]
19,0.512 µM,Cc1c(Oc2ncccc2NC(=O)Nc2ccc(OC(F)(F)F)cc2)cccc1-c1cccc(C#N)c1 [S27]
20,0.513 µM,Cc1c(Br)cccc1Oc1ncccc1NC(=O)Nc1ccc(OC(F)(F)F)cc1 [S28]
21,0.514 µM,CC(C)(C)c1ccccc1Oc1ncc(Br)cc1NC(=O)Nc1ccc(OC(F)(F)F)cc1 [S29]
22,0.574 µM,CC(C)c1cccc(C(F)F)c1Oc1ncccc1NC(=O)Nc1ccc(OC(F)(F)F)cc1 [S30]
23,0.607 µM,O=C(Nc1ccc(OC(F)(F)F)cc1)Nc1cccnc1Oc1cccc(N2CCCCC2)c1 [S31]
24,0.632 µM,O=C(Nc1ccc(OC(F)(F)F)cc1)Nc1cccnc1Oc1ccccc1N1CCCCC1 [S33]
25,0.64 µM,CC(C)(C)c1ccccc1Oc1ncccc1NC(=O)NCCCc1ccccc1 [S34]

row,IC50,SMILES
1,0.655 µM,Cc1c(Oc2ncccc2NC(=O)Nc2ccc(OC(F)(F)F)cc2)cccc1N1CCCC1 [S35]
2,0.732 µM,Cc1c(Oc2ncccc2NC(=O)Nc2ccc(OC(F)(F)F)cc2)cccc1N1CCC2(CC1)COC2 [S36]
3,0.778 µM,Cc1c(Oc2ncccc2NC(=O)Nc2ccc(OC(F)(F)F)cc2)cccc1-c1ccc2ccn(C)c2c1 [S37]
4,0.827 µM,O=C(Nc1ccc(OC(F)(F)F)cc1)Nc1cccnc1Oc1cccc(-c2ccccc2)c1 [S39]
5,0.924 µM,O=C(Nc1ccc(OC(F)(F)F)cc1)Nc1cccnc1Oc1cccc(OCc2ccccc2)c1 [S40]
6,0.925 µM,O=C(Nc1ccc(OC(F)(F)F)cc1)Nc1cccnc1Oc1ccccc1Br [S41]
7,0.948 µM,CC(C)(C)c1ccc(O)c(Oc2ncccc2NC(=O)Nc2ccc(OC(F)(F)F)cc2)c1 [S42]
8,0.958 µM,CC(C)(C)c1ccccc1Oc1ncccc1NC(=O)NCCc1ccccc1 [S43]
9,1.03 µM,Cc1c(C#N)cccc1Oc1ncccc1NC(=O)Nc1ccc(OC(F)(F)F)cc1 [S44]
10,1.06 µM,CC(C)(C)c1ccccc1Oc1ccsc1NC(=O)Nc1ccc(OC(F)(F)F)cc1 [S45]
11,1.1 µM,Cc1cccc(Oc2ncccc2NC(=O)Nc2ccc(OC(F)(F)F)cc2)c1 [S47]
12,1.11 µM,Cn1cc(-c2cnc(Oc3ccccc3C(C)(C)C)c(NC(=O)Nc3ccc(OC(F)(F)F)cc3)c2)cn1 [S48]
13,1.24 µM,Cc1c(Oc2ncccc2NC(=O)Nc2ccc(OC(F)(F)F)cc2)cccc1-c1ccc2c(c1)OCCN2 [S49]
14,1.28 µM,O=C(Nc1ccc(OC(F)(F)F)cc1)Nc1cccnc1Oc1cc(O)ccc1Br [S50]
15,1.32 µM,O=C(Nc1ccc(OC(F)(F)F)cc1)Nc1cccnc1Oc1cccc(Br)c1 [S51]
16,1.41 µM,O=C(Nc1ccc(OC(F)(F)F)cc1)Nc1cccnc1Oc1cccc(O)c1 [S52]
17,1.77 µM,CC(C)(C)c1ccccc1Oc1nnccc1NC(=O)Nc1ccc(OC(F)(F)F)cc1 [S53]
18,1.77 µM,CC(C)(C)c1ccccc1Oc1nccc(O)c1NC(=O)Nc1ccccc1 [S54]
19,1.97 µM,Cc1ccc(C)c(Oc2ncccc2NC(=O)Nc2ccc(OC(F)(F)F)cc2)c1 [S55]
20,1.96 µM,CC(C)(C)c1ccccc1Oc1ncc(-c2cccc(C#N)c2)cc1NC(=O)Nc1ccc(OC(F)(F)F)cc1 [S56]
21,1.99 µM,Cc1ccccc1Oc1ncc(C(F)F)cc1NC(=O)Nc1ccc(OC(F)(F)F)cc1 [S57]
22,2.1 µM,CC(C)(C)c1ccccc1Oc1ncc(-c2ccc(C#N)cc2)cc1NC(=O)Nc1ccc(OC(F)(F)F)cc1 [S58]
23,2.14 µM,Cc1c(Oc2ncccc2NC(=O)Nc2ccc(OC(F)(F)F)cc2)cccc1N1CC2CC1CO2 (stereo not drawn) [S59]
24,2.46 µM,Cc1c(Oc2ncccc2NC(=O)Nc2ccc(OC(F)(F)F)cc2)cccc1-c1cnn(C)c1 [S61]
25,2.47 µM,COc1ccc([C@H](C)NC(=O)Nc2cccnc2Oc2ccccc2C(C)(C)C)cc1 [S62]

row,IC50,SMILES
1,2.51 µM,N#Cc1cccc(-c2cccc(Oc3ncccc3NC(=O)Nc3ccc(OC(F)(F)F)cc3)c2)c1 [S63]
2,2.81 µM,Cc1cnc(Oc2cccc(N3CCCCC3)c2C)c(NC(=O)Nc2ccc(OC(F)(F)F)cc2)c1 [S64]
3,2.86 µM,O=C(Nc1ccc(OC(F)(F)F)cc1)Nc1cccnc1Oc1ccccc1 [S65]
4,3.35 µM,C=Cc1cnc(Oc2ccccc2C)c(NC(=O)Nc2ccc(OC(F)(F)F)cc2)c1 [S67]
5,3.59 µM,C#Cc1cnc(Oc2ccccc2C)c(NC(=O)Nc2ccc(OC(F)(F)F)cc2)c1 [S68]
6,4.39 µM,Cc1ccccc1Oc1ncc(C(F)(F)F)cc1NC(=O)Nc1ccc(OC(F)(F)F)cc1 [S69]
7,4.59 µM,Cc1ccccc1COc1ncccc1NC(=O)Nc1ccc(OC(F)(F)F)cc1 [S70]
8,4.94 µM,N#Cc1ccc(-c2cccc(Oc3ncccc3NC(=O)Nc3ccc(OC(F)(F)F)cc3)c2)cc1 [S71]
9,4.94 µM,Cc1ccccc1Oc1ncc(Br)cc1NC(=O)Nc1ccc(OC(F)(F)F)cc1 [S72]
10,5.84 µM,N#Cc1cccc(Oc2ncccc2NC(=O)Nc2ccc(OC(F)(F)F)cc2)c1 [S73]
11,6 µM,CC(c1ccccc1Oc1ncccc1NC(=O)Nc1ccc(OC(F)(F)F)cc1)N1CCCCC1 (stereo not drawn) [S74]
12,6.59 µM,Cc1c(Oc2ncccc2NC(=O)Nc2ccc(OC(F)(F)F)cc2)cccc1S(C)(=O)=O [S75]
13,7.07 µM,CC(C)(C)c1ccccc1Oc1ncccc1NC(=O)NC1CC2(C1)CN(CC(F)(F)F)C2 [S76]
14,7.12 µM,CC(C)(O)c1ccccc1Oc1ncccc1NC(=O)Nc1ccc(OC(F)(F)F)cc1 [S77]
15,7.16 µM,COc1ccc(Br)c(Oc2ncccc2NC(=O)Nc2ccc(OC(F)(F)F)cc2)c1 [S78]
16,7.58 µM,CC(C)(C)c1ccccc1Oc1ncc(-c2ccccc2)cc1NC(=O)Nc1ccc(OC(F)(F)F)cc1 [S79]
17,7.94 µM,O=C(Nc1ccc(F)cc1F)Nc1cccnc1Oc1ccc(C(F)(F)F)cc1 [S80]
18,8.12 µM,Cc1ccccc1Oc1ncncc1NC(=O)Nc1ccc(OC(F)(F)F)cc1 [S81]
19,8.18 µM,Cn1cc(-c2cccc(Oc3ncccc3NC(=O)Nc3ccc(OC(F)(F)F)cc3)c2)cn1 [S82]
20,8.73 µM,O=C(Nc1ccc(OC(F)(F)F)cc1)Nc1cccnc1Oc1cccc(N2CCOCC2)c1 [S83]
21,8.99 µM,Cc1ccccc1Oc1ncc(NC2CCOCC2)cc1NC(=O)Nc1ccc(OC(F)(F)F)cc1 [S84]
22,9.53 µM,Cc1c(Oc2ncccc2NC(=O)Nc2ccc(OC(F)(F)F)cc2)cccc1-c1cccc(CN(C)C)c1 [S85]
23,9.68 µM,CCOC(=O)c1nnc(NC(=O)Nc2cccnc2Oc2ccccc2C(C)(C)C)s1 [S86]
